Reference: ChEMBL document CHEMBL1156094, “Imidazopyridine-5,6,7,8-tetrahydro-8-quinolinamine derivatives with potent activity against HIV-1” (Bioorg Med Chem Lett, 2009)
The source made the active and inactive calls. No cut-off for these calls is given here.

Assays:
[1] = Volume of distribution at steady state in rat at 1 mg/kg, iv; type: ADME, organism-based; parameters: dose 1 mg/kg, route intravenous; details: in vivo, read-out: Vdss
[2] = target: C-X-C chemokine receptor type 4 (Homo sapiens) (UniProt P61073); experiment: Antagonist activity at CXCR4; type: functional
[3] = test system: Human immunodeficiency virus 1; experiment: Antiviral activity against HIV1 3B infected human HOS cells expressing human CXCR4 and CD4 assessed as inhibition of viral infection by luciferase reporter gene assay; type: functional, organism-based; details: Human immunodeficiency virus 1, 3B
[4] = test system: Human immunodeficiency virus 1; experiment: Antiviral activity against HIV1 3B infected human HOS cells expressing human CXCR4 and CD4 assessed as inhibition of viral infection in presence of human serum albumin and alpha-acid glycoprotein by luciferase reporter gene assay; type: functional; parameters: unit not given here
[5] = Clearance in rat at 1 mg/kg, iv; type: ADME, organism-based; parameters: dose 1 mg/kg, route intravenous; details: in vivo
[6] = Half life in rat at 1 mg/kg, iv; type: ADME, organism-based; parameters: dose 1 mg/kg, route intravenous; details: in vivo
[7] = Oral bioavailability in rat at 3 mg/kg; type: ADME, organism-based; details: in vivo
[8] = Cytotoxicity against human HOS cells; type: cell-based
[9] = Half life in cynomolgus monkey at 1 mg/kg, iv; type: ADME, organism-based, Macaca fascicularis; parameters: dose 1 mg/kg, route intravenous; details: in vivo
[10] = Volume of distribution at steady state in cynomolgus monkey at 1 mg/kg, iv; type: ADME, organism-based, Macaca fascicularis; parameters: dose 1 mg/kg, route intravenous; details: in vivo, read-out: Vdss
[11] = Oral bioavailability in Beagle dog at 3 mg/kg; type: ADME, organism-based, Canis lupus familiaris; details: in vivo
[12] = Half life in Beagle dog at 1 mg/kg, iv; type: ADME, organism-based, Canis lupus familiaris; parameters: dose 1 mg/kg, route intravenous; details: in vivo
[13] = Volume of distribution at steady state in Beagle dog at 1 mg/kg, iv; type: ADME, organism-based, Canis lupus familiaris; parameters: dose 1 mg/kg, route intravenous; details: in vivo, read-out: Vdss
[14] = Oral bioavailability in cynomolgus monkey at 3 mg/kg; type: ADME, organism-based, Macaca fascicularis; details: in vivo
[15] = Clearance in cynomolgus monkey at 1 mg/kg, iv; type: ADME, organism-based, Macaca fascicularis; parameters: dose 1 mg/kg, route intravenous; details: in vivo
[16] = Clearance in Beagle dog at 1 mg/kg, iv; type: ADME, organism-based, Canis lupus familiaris; parameters: dose 1 mg/kg, route intravenous; details: in vivo

Chain of C-X-C chemokine receptor type 4 (Homo sapiens) (P61073 whole entry): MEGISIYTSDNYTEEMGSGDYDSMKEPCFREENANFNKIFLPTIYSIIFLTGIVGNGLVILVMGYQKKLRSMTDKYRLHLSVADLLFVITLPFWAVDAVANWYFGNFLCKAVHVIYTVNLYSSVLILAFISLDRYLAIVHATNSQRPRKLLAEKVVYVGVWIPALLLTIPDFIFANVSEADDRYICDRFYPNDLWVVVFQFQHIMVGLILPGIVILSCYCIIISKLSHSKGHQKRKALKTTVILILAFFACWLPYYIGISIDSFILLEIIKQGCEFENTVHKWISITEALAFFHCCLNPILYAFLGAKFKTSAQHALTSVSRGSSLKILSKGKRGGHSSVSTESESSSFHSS

Structure (SMILES)	Activity [2]	IC50 [3] [nM]	Activity [4]	CC50 [8] [nM]	further results
CC(C)N1CCN(c2cccc3nc(CN(C)[C@H]4CCCc5cccnc54)cn23)CC1	Active	3	3.3	7100	Vd [1]: 10.6 L/kg; clearance [5]: 31 mL/min/kg; half-life [6]: 3.9 h; bioavailability [7]: 29%
CN1CCN(c2cccc3nc(CN(C)[C@@H]4CCCc5cccnc54)cn23)CC1	Active	84	–	12600	–
CN(C)C1CCN(c2cccc3nc(CN(C)[C@H]4CCCc5cccnc54)cn23)CC1	Active	4	8	3400	Vd [1]: 5.1 L/kg; clearance [5]: 5.7 mL/min/kg; half-life [6]: 10 h; bioavailability [7]: 7%
CN(C)[C@H]1CCN(c2cccc3nc(CN(C)[C@H]4CCCc5cccnc54)cn23)C1	Active	8	3	2100	Vd [1]: 4.5 L/kg; clearance [5]: 9.5 mL/min/kg; half-life [6]: 7.9 h; bioavailability [7]: 2%
CN(Cc1cn2c(N3CCN4CCCC4C3)cccc2n1)[C@H]1CCCc2cccnc21 (some centres undefined)	Active	4	–	3900	–
CN1CCN(c2cccc3nc(CN(C)[C@H]4CCCc5cccnc54)cn23)CC1	Active	2	1.5	4500	Vd [1]: 4.9 L/kg; half-life [9]: 10 h; Vd [10]: 3.7 L/kg; bioavailability [11]: 13%; half-life [12]: 7.6 h; Vd [13]: 8.5 L/kg; clearance [5]: 14 mL/min/kg; bioavailability [14]: 10%; half-life [6]: 5.5 h; clearance [15]: 6 mL/min/kg; bioavailability [7]: 11%; clearance [16]: 18 mL/min/kg
CN(C)[C@@H]1CCN(c2cccc3nc(CN(C)[C@H]4CCCc5cccnc54)cn23)C1	Active	43	5	4900	–
CCCCN(Cc1cn2c(N3CCN(C)CC3)cccc2n1)[C@H]1CCCc2cccnc21	Active	3	–	5300	–
CN(Cc1cn2c(N3CCOCC3)cccc2n1)C1CCCc2cccnc21 (racemic)	Active	690	–	> 10000	–
CN(Cc1cn2c(N3CCC(N)CC3)cccc2n1)[C@H]1CCCc2cccnc21	Active	4	–	6300	–
CN1CCN(c2cccc3nc(CN(CC4CC4)[C@H]4CCCc5cccnc54)cn23)CC1	Active	4	6	8000	Vd [1]: 6 L/kg; clearance [5]: 9.9 mL/min/kg; half-life [6]: 8.8 h; bioavailability [7]: 31%
CC(C)CN(Cc1cn2c(N3CCN(C)CC3)cccc2n1)[C@H]1CCCc2cccnc21	Active	23	–	20000	–
CN1CCN(c2cccc3nc(CN(CC(F)(F)F)C4CCCc5cccnc54)cn23)CC1 (racemic)	Active	127	–	> 5000	–
CC(C)N(Cc1cn2c(N3CCN(C)CC3)cccc2n1)[C@H]1CCCc2cccnc21	Active	5	5	8900	–
CN1CCN(c2cccn3cc(CN(C)[C@H]4CCCc5cccnc54)nc23)CC1	Active	640	–	> 5000	–
CN1CCC(N(C)c2cccc3nc(CN(C)[C@H]4CCCc5cccnc54)cn23)C1 (some centres undefined)	Active	30	1.3	10800	–
CN1CCC(N(C)c2cccc3nc(CN(C)[C@H]4CCCc5cccnc54)cn23)CC1	Active	49	–	12500	–
CN1CCN(c2cccc3nc(CN(C)[C@H]4CCCc5cccnc54)[nH]c23)CC1	Active	–	80	> 5000	–
CCCN(Cc1cn2c(N3CCN(C)CC3)cccc2n1)[C@H]1CCCc2cccnc21	Active	3	5	6700	Vd [1]: 6.2 L/kg; clearance [5]: 8.9 mL/min/kg; half-life [6]: 10.7 h; bioavailability [7]: 41%
CCN(Cc1cn2c(N3CCN(C)CC3)cccc2n1)[C@H]1CCCc2cccnc21	Active	2	1.5	8100	–
CCN1CCN(c2cccc3nc(CN(C)[C@H]4CCCc5cccnc54)cn23)CC1	Active	4	10	3900	–
CN1CCN(c2cccc3nc(CN(Cc4ccccc4)[C@H]4CCCc5cccnc54)cn23)CC1	Active	28	–	9300	–
